Results: patent US8293786B2 (Alltranz Inc., priority 2007, dated 2012)

Experiments:
[1] = tested on: human abdominal skin; assay: In vitro human skin permeation and skin disposition, flow-through diffusion cells (Example 1); assay type: in vitro ADME
Experimental: Flow through diffusion cells were used for the permeation studies. HEPES-buffered Hanks' balanced salts containing 40% (polyethylene glycol) PEG 400 with gentamicin was used for the receiver compartment. Donor solution was comprised of either 100% propylene glycol (PG) solution or a rubbed in gel formulation. […] Drug accumulation in the skin after a 24 or 36 h diffusion experiment was determined as μmol/g wet tissue weight.
The skin samples used in the following experiments were obtained from abdominal reduction surgery and dermatomed to a thickness of approximately 200 μm. The skin samples used herein were frozen at −20° C. for less than six months.
1 L of receiver fluid was prepared by measuring 1 L of nanopure water into a graduated cylinder. 90% of the water was added to an Erlenmeyer flask. Hanks' salts (1 bottle) were added to the water along with 5.96 g of HEPES and 0.35 g of sodium bicarbonate. The pH of the solution was adjusted with 1 N sodium hydroxide solution to pH 7.4. The remaining water was added and the receiver fluid was filtered through a 0.2μ filter (Millipore, Billerica, Mass.). 50 mg of gentamicin was added to the filtered receiver fluid and 400 mL of the receiver fluid was removed and replaced with 400 mL of PEG 400.
Two different formulations were used for charging the donor compartment. Drugs were made up in either 100% PG or a gel formulation. For the PG solution, approximately 50-120 mg of the appropriate drug was weighed into a glass silanized culture tube. The gel formulation resulted from the mixing of absolute ethanol, nanopure water, IPM, Carbopol® 980, 0.1 N aqueous sodium hydroxide solution and the respective drug.
Dermatomed skin harvested from abdominoplasty, stored at −20° C., was used for the experiments. A PermeGear flow-through (In-Line, Riegelsville, Pa.) diffusion cell system was used for the skin permeation studies.
Diffusion cells were kept at 32° C. with a circulating water bath. Human epidermal skin was arranged in the diffusion cell with stratum corneum (upper layer of skin) facing the donor compartment. Permeation area of the skin was 0.95 cm^2. Data was collected from a human skin donor with three to four diffusion cells per treatment.
Receiver solution was HEPES-buffered Hanks' balanced salts with gentamicin containing 40% PEG 400 at a pH of 7.4 and flow rate was adjusted to 0.8 mL/h. Each cell was charged with 0.050 mL of the respective drug formulation (donor solution) or with 0.035 mL of gel formulation which was rubbed into the skin for 15 sec with a Teflon coated rod. The formulation was applied to ensure complete coverage. Diffusion cells were covered with a cap for the duration of the study.
Samples were collected into scintillation vials in 3 h increments for either 24 h or 36 h. All the samples were stored at 4° C. until extracted. An aliquot (0.5 mL) of the diffusion sample was placed into a silanized HPLC vial and 0.5 mL of acetonitrile was added to the sample, capped and vortexed.
At the end of the experiment, the skin tissue was removed from the diffusion cell, rinsed with nanopure water, and blotted dry with a paper towel. The skin was tape stripped twice using book tape (Scotch™, 3M, St. Paul, Minn.) to remove drug formulation adhering to the tissue surface. The area of skin in contact with the drug was cut out, chopped up and placed in a pre-weighed scintillation vial. Ten mL of acetonitrile was added to the vial and drug was extracted from the skin by shaking at room temperature overnight. The following day a 0.1 mL aliquot was removed and diluted with an additional 0.9 mL of acetonitrile. The diluted sample was added to the silanized HPLC vial for analysis.
At the end of the experiment, a 0.01 mL aliquot of the PG donor solution was removed and added to a scintillation vial containing 10 mL of acetonitrile. The vials were vortexed and then sonicated for 15 min. An aliquot of 1 mL was removed and transferred into a silanized HPLC vial for analysis.

[2] = Plasma stability of cannabidiol prodrugs (bioconversion to parent drug); assay type: in vitro ADME; details: Table 20, di-prodrug in plasma; for % mono-prodrug at time (h): mono-prodrug formed
Experimental: An approximated 1 mg/mL stock solution of each prodrug was prepared in 100 μL of ethanol and 900 μL of acetonitrile. Ten (10) μL of stock was spiked into 1 mL of plasma and vortexed. The samples were kept sealed in an amber vial and samples were obtained to analyze for bioconversion to parent drug.

[3] = Table 11, in gel formulation, CBD from applied prodrug
[4] = Table 11, in gel formulation, as applied compound (CBD or intact prodrug)
[5] = Table 11, in gel formulation, prodrug applied, as total CBD equivalents (cannabidiol and/or prodrug)
[6] = Table 12, in gel formulation, CBD from applied prodrug
[7] = Table 12, in gel formulation, as applied compound (CBD or intact prodrug)
[8] = Table 12, in gel formulation, prodrug applied, as total CBD equivalents
[9] = Table 13, in propylene glycol, 36 h, CBD from applied prodrug
[10] = Table 13, in propylene glycol, 36 h, as applied compound (CBD or intact prodrug)
[11] = Table 13, in propylene glycol, 36 h, prodrug applied, as total CBD equivalents
[12] = Table 13, in propylene glycol, CBD from applied prodrug
[13] = Table 13, in propylene glycol, as applied compound (CBD or intact prodrug)
[14] = Table 13, in propylene glycol, prodrug applied, as total CBD equivalents

Compound: C=C(C)C1CCC(C)=CC1c1c(OC(=O)CN(C)C)cc(CCCCC)cc1OC(=O)CN(C)C (centres unmarked) [ALL00105, CBD bis(N,N-dimethylglycinate)]
- form in which the prodrug permeated through the human skin ([1]; Example 1): permeated primarily as intact prodrug
- 24 h cumulative amt [1, 3]: 4.1 ± 1.5 nmol
- 24 h skin conc [1, 3]: 2.5 ± 2.1 µmol/g
- Flux [1, 3]: 0.3 ± 0.02 nmol/cm^2/h
- Lag time [1, 3]: 0.8 ± 0.4 h
- 24 h cumulative amt [1, 4]: 66.8 ± 9.0 nmol
- 24 h skin conc [1, 4]: 82.1 ± 58.9 µmol/g
- Flux [1, 4]: 2.9 ± 0.5 nmol/cm^2/h
- Lag time [1, 4]: 7.9 ± 3.3 h
- 24 h cumulative amt [1, 5]: 76.5 ± 7.9 nmol
- 24 h skin conc [1, 5]: 84.5 ± 60.7 µmol/g
- Flux [1, 5]: 3.3 ± 0.7 nmol/cm^2/h
- Lag time [1, 5]: 1.2 ± 0.1 h
- 24 h cumulative amt [1, 6]: 1.1 ± 0.02 nmol
- 24 h skin conc [1, 6]: 2.2 ± 2.1 µmol/g
- Flux [1, 6]: 0.06 ± 0.02 nmol/cm^2/h
- Lag time [1, 6]: 1.0 ± 0.6 h
- 24 h cumulative amt [1, 7]: 7.3 ± 0.03 nmol
- 24 h skin conc [1, 7]: 27.5 ± 7.4 µmol/g
- Flux [1, 7]: 0.37 ± 0.01 nmol/cm^2/h
- Lag time [1, 7]: 3.9 ± 4.8 h
- 24 h cumulative amt [1, 8]: 8.9 ± 0.04 nmol
- 24 h skin conc [1, 8]: 29.7 ± 9.1 µmol/g
- Flux [1, 8]: 0.41 ± 0.03 nmol/cm^2/h
- Lag time [1, 8]: 0.9 ± 1.2 h
- Flux [1, 9]: 1.4 ± 0.2 nmol/cm^2/h
- Lag time [1, 9]: 12.6 ± 1.3 h
- Flux [1, 10]: 0.5 ± 0.01 nmol/cm^2/h
- Lag time [1, 10]: 7.5 ± 0.0 h
- Flux [1, 11]: 1.9 ± 0.2 nmol/cm^2/h
- Lag time [1, 11]: 10.0 ± 2.9 h
- 36 h cumulative amt [1, 12]: 32.6 ± 3.0 nmol
- 36 h skin conc. [1, 12]: 2.8 ± 3.8 µmol/g
- 36 h cumulative amt [1, 13]: 14.7 ± 3.2 nmol
- 36 h skin conc. [1, 13]: 8.8 ± 0.0 µmol/g
- 36 h cumulative amt [1, 14]: 47.2 ± 0.1 nmol
- 36 h skin conc. [1, 14]: 7.2 ± 10.1 µmol/g
- cumulative amount of total cannabidiol equivalents delivered, compared to cannabidiol ([1]; gel formulation): 3.1-5.9 fold
- decrease of lag time of total cannabidiol compared to the parent drug ([1]; gel formulation studies): 7 to 8 h
- mean flux enhancement ([1]; mean between the two gel formulation experiments): 2.5
- enhancement with the propylene glycol donor solution ([1]; propylene glycol donor solution): did not show any enhancement
- % mono-prodrug at time (h) ([2]; 2 h): 0%
- % mono-prodrug at time (h) ([2]; 4 h): 0%
- % mono-prodrug at time (h) ([2]; 22 h): 0%
- % mono-prodrug at time (h) ([2]; 24 h): 0%
- % Di-prodrug at time (h) ([2]; 0 h): 100%
- % Di-prodrug at time (h) ([2]; 2 h): 92%
- % Di-prodrug at time (h) ([2]; 4 h): 88%
- % Di-prodrug at time (h) ([2]; 22 h): 58%
- % Di-prodrug at time (h) ([2]; 24 h): 55%
